Reference: the supplement of paper PMC10307832

Key:
Assay in all cases: relative viability (nuclei count vs DMSO), 5 days (fraction); higher = more cells survive
Tozasertib + Dasatinib = compound: Cc1cc(Nc2cc(N3CCN(C)CC3)nc(Sc3ccc(NC(=O)C4CC4)cc3)n2)n[nH]1 [Tozasertib] + Cc1nc(Nc2ncc(C(=O)Nc3c(C)cccc3Cl)s2)cc(N2CCN(CCO)CC2)n1 [Dasatinib] (partner 0.075 µM)
Summary of the method: (§1)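 Medians of duplicate plates are given as relative viability. That measure is the nuclei count in treated wells divided by the count in vehicle wells. Counts were taken on 4× images of lung cancer cell lines in 1536-well plates, 5 days after pin-tool dosing the day after seeding with one drug alone or a fixed anchor-drug dose plus five library-drug doses (not always all listed) in √10 steps.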

Tozasertib + OSI-027 = compound: Cc1cc(Nc2cc(N3CCN(C)CC3)nc(Sc3ccc(NC(=O)C4CC4)cc3)n2)n[nH]1 [Tozasertib] + COc1cccc2cc(-c3nc([C@H]4CC[C@H](C(=O)O)CC4)n4ncnc(N)c34)[nH]c12 [OSI-027] (partner 0.5 µM)
Summary of the method: as §1

Tozasertib + Alpelisib = compound: Cc1cc(Nc2cc(N3CCN(C)CC3)nc(Sc3ccc(NC(=O)C4CC4)cc3)n2)n[nH]1 [Tozasertib] + Cc1nc(NC(=O)N2CCC[C@H]2C(N)=O)sc1-c1ccnc(C(C)(C)C(F)(F)F)c1 [Alpelisib] (partner 2 µM)
Summary of the method: as §1

Tozasertib = compound: Cc1cc(Nc2cc(N3CCN(C)CC3)nc(Sc3ccc(NC(=O)C4CC4)cc3)n2)n[nH]1 [Tozasertib]
Summary of the method: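 MetaXpress counted nuclei in 4× images of lung cancer cell lines that had been fixed, permeabilised and Hoechst-stained in one step. Before that, cells in 1536-well plates were kept overnight at 37 °C, pinned with five √10-spaced library-drug doses on vehicle-anchored plates, and cultured 5 days without medium change. Viability takes treated-well nuclei over vehicle-well nuclei and uses the median across plates. Plates were accepted only at control CV below 25% and at least one doubling.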

Cell Line	relative viability (Tozasertib + Dasatinib; first compound 0.004 µM)	relative viability (Tozasertib + Dasatinib; first compound 0.01265 µM)	relative viability (Tozasertib + Dasatinib; first compound 0.04 µM)	relative viability (Tozasertib + Dasatinib; first compound 0.1265 µM)	relative viability (Tozasertib + OSI-027; first compound 0.004 µM)	relative viability (Tozasertib + OSI-027; first compound 0.01265 µM)	relative viability (Tozasertib + OSI-027; first compound 0.04 µM)	relative viability (Tozasertib + OSI-027; first compound 0.1265 µM)	relative viability (Tozasertib + Alpelisib; first compound 0.004 µM)	relative viability (Tozasertib + Alpelisib; first compound 0.01265 µM)	relative viability (Tozasertib + Alpelisib; first compound 0.04 µM)	relative viability (Tozasertib + Alpelisib; first compound 0.1265 µM)	relative viability (Tozasertib; 0.004 µM)	relative viability (Tozasertib; 0.01265 µM)	relative viability (Tozasertib; 0.1 µM, anchor plate)	relative viability (Tozasertib; 0.1265 µM)	relative viability (Tozasertib; 0.04 µM)
NCI-H3122	0.71	0.802	0.913	0.886	1.04	0.915	0.967	0.928	0.808	0.809	0.847	0.749	0.965	0.976	0.421	1.01	–
NCI-H1792	0.7	0.594	0.888	0.694	0.716	0.579	0.81	0.621	0.613	0.596	0.817	0.618	1.16	0.781	–	0.613	1.01
RERF-LC-KJ	0.729	0.806	0.852	0.582	–	0.597	0.59	0.484	0.897	0.761	0.914	0.599	0.942	0.914	0.491	0.895	1.04
NCI-H650	0.577	0.384	0.452	0.389	0.549	0.512	0.535	0.452	1.23	1.06	–	–	0.993	0.934	0.724	0.606	0.918
NCI-H596	0.555	0.589	0.645	0.53	0.785	0.628	0.797	0.771	–	0.451	0.519	0.439	0.993	0.883	0.919	0.988	1.01
NCI-H441	0.655	0.643	–	0.474	0.57	0.647	0.568	0.6	0.69	0.69	0.758	0.541	0.987	–	0.664	–	–
COR-L23	0.521	0.547	0.479	0.245	0.747	0.726	0.635	0.538	0.827	0.763	0.585	0.699	1.02	0.958	0.203	0.701	0.947
NCI-H1437	0.453	0.254	0.372	0.434	1	0.794	0.874	0.606	–	0.866	1.01	0.92	1.01	0.941	0.406	–	0.924
NCI-H23	0.747	0.91	0.832	0.909	0.614	0.629	0.666	0.453	0.638	0.578	0.781	0.361	1.05	0.953	0.365	0.501	0.885
